Reference: US9604931B2, “Nuclear receptor binding agents” (GTx, Inc., priority 2007, dated 2017)
“Also recorded” adds a separate entry of the source.

How the values were obtained:
[1] = test system: Ang II induced cardiac fibrosis; experiment: Angiotensin II model, cardiac fibrosis; type: in vivo, ovariectomized C57/BJ6 and ERβKO mice
Description: Thirty, ten week old female ovariectomized C57/BJ6 mice, were obtained from Harlan/Sprague Dawley and were housed in 12 hour on/off lighting and fed rodent chow devoid of soy or most plant products. Ovariectomized ERβKO mice were obtained from Ken Korach, NIEHS. The ERβ mice were originally created by Drs. Smithies, Gustafsson, and colleagues. All mice were identically housed and fed the same chow.
This pellet is well documented to produce physiological levels of E2 in the serum of mice.
Left ventricular tissues were fixed in 4% paraformaldehyde solution. Paraffin-embedded tissue sections (5 um) were stained with Masson's trichrome for the presence of interstitial collagen fiber accumulation indicative of cardiac fibrosis. The ratio of interstitial fibrosis to the total left ventricular area was calculated from 10 randomly selected microscopic fields from each of five sections per heart using NIH imageJ analysis software (n=5 mice per condition). Further quantification of collagen deposition was made by ventricular content of hydroxyproline, a breakdown product of collagen, determined by a modified method of Bergman and Loxley (19). The ventricular tissues were homogenized and hydrolyzed in 6 N HCl at 110° C. for 24 h in a sealed reaction vial. The sample was dried and the residue re-suspended in sterile water. 0.5 ml of chloramine T was added for 5 min, then Ehrlich's reagent (3 ml) was added and the mixture left for 18 h at room temperature. The intensity of the red coloration that developed was measured by a spectrophotometer at 558 nm.

[2] = test system: ovariectomy-induced (postmenopausal) obesity model; experiment: Ovariectomy-induced obesity model; type: in vivo, female C57BL6 mice; details: OVX mice
Description: For the ovariectomy-induced obesity model, 6 week old female C57BL6 mice were sham operated or ovariectomized and the study was carried out for 9 weeks as indicated above.
Since it was shown that β-SERMs affected body composition in an animal model of high fat diet-induced obesity, they might also be effective in an animal model of postmenopausal obesity.

ARPE-19 cells = experiment: Fluorescent detection of intracellular ROS; type: cell-based, Human; details: 150 μM tBH
From the text: Cells were allowed to adhere overnight. […] Removed and washed cells once with HBSS. […] Each drug concentration was done in triplicates.

O=c1c2c(O)cc(O)cc2c(Br)cn1-c1ccc(O)cc1 [12u, 4-bromo-6,8-dihydroxy-2-(4-hydroxyphenyl)isoquinolin-1(2H)-one]
Ventricular hydroxyproline content ([1]; WT mice, not ERβKO): significantly inhibited the hydroxyproline content
Ang II induced cardiac fibrosis (interstitial collagen) ([1]; only in WT mice): significantly inhibited fibrosis; also recorded: prevented
Body weight gain [2]: did not inhibit body weight gain
Fat mass (MRI) [2]: completely prevented the increase in fat mass
Feed consumption [2]: increased the feed consumption
Lean mass (MRI) [2]: significantly increased lean mass
Uterine weight [2]: without affecting uterine weight
WAT weight [2]: completely inhibited the WAT
Prevention of ROS formation / oxidative stress (ARPE-19 cells): did not seem to have any effect
